The text below walks through data of patent US20240067693A1, “POLYPEPTIDES AND USES THEREOF” (MEDIMMUNE LIMITED, priority 2020, published 2024).

Numbered stars: 1 amine (or outer) side, 2 acyl side, 3 side chain; on linkers, the order of the positions; unused ones are H or OH. Bridge positions count the residues as written; N and C are the ends. Square brackets hold non-standard residues; d marks the D form. Side chains are listed from the residue outwards. Peptide text beside a SMILES is read from it. * marks the point of attachment. C20 diacid = O=C(O)CCCCCCCCCCCCCCCCCCC(=O)*; C18 diacid = O=C(O)CCCCCCCCCCCCCCCCC(=O)*; γGlu = O=C(O)[C@H](CCC(=O)[*:2])N[*:1]; αMeF = C[C@](N)(Cc1ccccc1)C(=O)O; Dab = NCC[C@H](N)C(=O)O; Aib = CC(C)(N)C(=O)O

Assay [1] deals with T1, human calcitonin receptor (hCTR) (Homo sapiens, UniProt P30988).
T1 construct: expressed in transfected cells
T1 sequence (P30988 25-474): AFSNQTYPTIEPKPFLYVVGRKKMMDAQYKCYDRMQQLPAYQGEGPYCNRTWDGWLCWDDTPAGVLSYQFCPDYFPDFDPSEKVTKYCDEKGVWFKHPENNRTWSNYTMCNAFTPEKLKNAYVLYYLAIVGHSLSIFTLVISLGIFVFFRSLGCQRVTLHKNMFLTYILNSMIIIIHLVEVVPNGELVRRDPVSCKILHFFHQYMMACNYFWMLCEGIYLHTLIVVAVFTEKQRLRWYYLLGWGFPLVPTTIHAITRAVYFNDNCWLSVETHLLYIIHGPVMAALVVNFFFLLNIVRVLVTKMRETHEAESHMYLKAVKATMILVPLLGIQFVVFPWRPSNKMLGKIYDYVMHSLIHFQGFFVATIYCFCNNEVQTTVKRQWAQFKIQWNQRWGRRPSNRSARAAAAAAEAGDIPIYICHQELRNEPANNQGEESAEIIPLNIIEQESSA
The assay can be described thus: cAMP production in 1321N1 cells with stable recombinant expression of human calcitonin receptor (hCTR). Format: cell-based. The note with it: cAMP, 1321N1 cells, assay buffer with 0.1% BSA; read-out: EC50 (pM) hCTR. In short, it runs like this:
(§1)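 EC50 values come from 4-parameter logistic fits of HTRF cAMP signal, normalised to maximal calcitonin or amylin effect. Peptides were tested in duplicate for 30 min at RT in IBMX-containing (0.5 mM) BSA/HEPES buffer pH 7.4 on stable 1321N1 (human CTR, AMYR3) or HEK (rat CTR, AMYR3) lines.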
Background: Changes in cAMP serve as a functional read-out for many G protein-coupled receptors.

For assay [2], the target named is T2, human amylin receptor (calcitonin receptor co-expressed with receptor activity modifying protein, RAMP3) (hAMYR3) (Homo sapiens, UniProt O60896+P30988).
T2 construct: expressed in transfected cells
T2 sequence (P30988 25-474): T1 sequence (P30988 25-474)
T2 sequence (O60896 24-148 partner): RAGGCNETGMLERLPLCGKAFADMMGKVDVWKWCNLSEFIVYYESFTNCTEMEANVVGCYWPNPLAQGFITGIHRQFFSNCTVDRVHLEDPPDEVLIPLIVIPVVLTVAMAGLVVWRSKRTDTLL
Put plainly: cAMP production in 1321N1 cells with stable recombinant expression of human amylin receptor (hAMYR3). The format is cell-based. Conditions: for Ratio (selectivity hAMYR vs hCTR, ratio of EC50 values at the two receptors): EC50 hCTR / EC50 hAMYR3; for EC50: cAMP, 1321N1 cells, assay buffer with 0.1% BSA, read-out: EC50 (pM) hAMYR3. The procedure, abridged: as §1

By EC50 is commonly meant the concentration giving half of the maximal effect.

For the compound `CC[C@H](C)[C@H](NC(=O)[C@@H]1CCCN1C(=O)CNC(=O)[C@](C)(Cc1ccccc1)NC(=O)[C@H](CC(N)=O)NC(=O)[C@H](CC(N)=O)NC(=O)[C@H](CO)NC(=O)[C@H](CO)NC(=O)[C@H](Cc1c[nH]cn1)NC(=O)[C@@H](NC(=O)[C@H](CC(C)C)NC(=O)[C@H](Cc1ccccc1)NC(=O)[C@H](CC(N)=O)NC(=O)[C@H](C)NC(=O)[C@H](CC(C)C)NC(=O)[C@H](CCCNC(=N)N)NC(=O)[C@H](CCC(N)=O)NC(=O)[C@@H](NC(=O)[C@H](C)NC(=O)[C@@H]1CSSC[C@H](NC(=O)[C@@H](N)CCCCNC(=O)CC[C@H](NC(=O)CC[C@H](NC(=O)CCCCCCCCCCCCCCCCC(=O)O)C(=O)O)C(=O)O)C(=O)N[C@@H](CC(N)=O)C(=O)N[C@@H]([C@@H](C)O)C(=O)N[C@@H](C)C(=O)N[C@@H]([C@@H](C)O)C(=O)N1)[C@@H](C)O)C(C)C)C(=O)N[C@@H](CC(C)C)C(=O)N1CCC[C@H]1C(=O)N1CCC[C@H]1C(=O)N[C@H](C(=O)N[C@@H](CCC(=O)O)C(=O)N[C@H](C(=O)NCC(=O)N[C@@H](CO)C(=O)N[C@@H](CC(N)=O)C(=O)N[C@H](C(=O)N[C@@H](Cc1ccc(O)cc1)C(N)=O)[C@@H](C)O)C(C)C)[C@@H](C)O` [Peptide 23, K(γE-γE-C18diacid)[CNTATC]ATQRLANFLVHSSNN(αMePhe)GPILPPTEVGSNTY-amide] (H-K([γGlu-γGlu-C18 diacid])CNTATCATQRLANFLVHSSNN[αMeF]GPILPPTEVGSNTY-NH2; disulfide 2-7), the results for the half-maximal effective concentration (EC50) in assay [1] and in assay [2] were 589 pM and 238 pM, respectively. The “Ratio (selectivity hAMYR vs hCTR, ratio of EC50 values at the two receptors)” value in assay [2] amounted to 2.
For `CC[C@H](C)[C@H](NC(=O)[C@@H]1CCCN1C(=O)CNC(=O)[C@H](Cc1ccccc1)NC(=O)[C@H](CC(N)=O)NC(=O)C(C)(C)NC(=O)[C@H](CO)NC(=O)[C@H](CO)NC(=O)[C@H](Cc1c[nH]cn1)NC(=O)[C@@H](NC(=O)[C@H](CC(C)C)NC(=O)[C@H](Cc1ccccc1)NC(=O)[C@H](CC(N)=O)NC(=O)[C@H](C)NC(=O)[C@H](CC(C)C)NC(=O)[C@H](CCCNC(=N)N)NC(=O)[C@H](CCC(N)=O)NC(=O)[C@@H](NC(=O)[C@H](C)NC(=O)[C@@H]1CSSC[C@H](NC(=O)[C@H](CCCCN)NC(=O)[C@@H](N)CCCCNC(=O)CC[C@H](NC(=O)CCCCCCCCCCCCCCCCC(=O)O)C(=O)O)C(=O)N[C@@H](CC(N)=O)C(=O)N[C@@H]([C@@H](C)O)C(=O)N[C@@H](C)C(=O)N[C@@H]([C@@H](C)O)C(=O)N1)[C@@H](C)O)C(C)C)C(=O)N[C@@H](CC(C)C)C(=O)N1CCC[C@H]1C(=O)N1CCC[C@H]1C(=O)N[C@H](C(=O)N[C@@H](CC(N)=O)C(=O)N[C@H](C(=O)NCC(=O)N[C@@H](CO)C(=O)N[C@@H](CC(N)=O)C(=O)NC(C)(C)C(=O)N[C@@H](Cc1ccc(O)cc1)C(N)=O)C(C)C)[C@@H](C)O` [Peptide 83, K(γE-C18diacid)K[CNTATC]ATQRLANFLVHSS(Aib)NFGPILPPTNVGSN(Aib)Y-amide] (H-K([γGlu-C18 diacid])KCNTATCATQRLANFLVHSS[Aib]NFGPILPPTNVGSN[Aib]Y-NH2; disulfide 3-8; N-terminus assumed), in assay [1], the EC50 was 6340 pM. Besides, in assay [2], the “Ratio (selectivity hAMYR vs hCTR, ratio of EC50 values at the two receptors)” value was 11 and the 50% effective concentration (EC50) turned out to be 599 pM.
Regarding `CC[C@H](C)[C@H](NC(=O)[C@H](C)NC(=O)[C@@H]1CCCN1C(=O)[C@H](Cc1ccccc1)NC(=O)[C@H](CC(N)=O)NC(=O)C(C)(C)NC(=O)[C@H](CO)NC(=O)[C@H](CO)NC(=O)[C@H](Cc1c[nH]cn1)NC(=O)[C@@H](NC(=O)[C@H](CC(C)C)NC(=O)[C@H](Cc1ccccc1)NC(=O)[C@H](CC(N)=O)NC(=O)[C@H](C)NC(=O)[C@H](CC(C)C)NC(=O)[C@H](CCCNC(=N)N)NC(=O)[C@H](CCC(N)=O)NC(=O)[C@@H](NC(=O)[C@H](C)NC(=O)[C@@H]1CSSC[C@H](NC(=O)[C@@H](N)CCCCNC(=O)CC[C@H](NC(=O)CC[C@H](NC(=O)CCCCCCCCCCCCCCCCCCC(=O)O)C(=O)O)C(=O)O)C(=O)N[C@@H](CC(N)=O)C(=O)N[C@@H]([C@@H](C)O)C(=O)N[C@@H](C)C(=O)N[C@@H]([C@@H](C)O)C(=O)N1)[C@@H](C)O)C(C)C)C(=O)N[C@@H](CC(C)C)C(=O)N[C@@H](CO)C(=O)N1CCC[C@H]1C(=O)N[C@H](C(=O)N[C@@H](CC(N)=O)C(=O)N[C@H](C(=O)NCC(=O)N[C@@H](CO)C(=O)N[C@@H](CCN)C(=O)N[C@H](C(=O)N[C@@H](Cc1ccc(O)cc1)C(N)=O)[C@@H](C)O)C(C)C)[C@@H](C)O` [Peptide 125, K(γE-γE-C20diacid)[CNTATC]ATQRLANFLVHSS(Aib)NFPAILSPTNVGS(Dab)TY-amide] (H-K([γGlu-γGlu-C20 diacid])CNTATCATQRLANFLVHSS[Aib]NFPAILSPTNVGS[Dab]TY-NH2; disulfide 2-7; N-terminus assumed), the EC50 in assay [1] was 10200 pM. The “Ratio (selectivity hAMYR vs hCTR, ratio of EC50 values at the two receptors)” value in assay [2] is 8.
On to `CC[C@H](C)[C@H](NC(=O)[C@@H]1CCCN1C(=O)CNC(=O)[C@H](Cc1ccccc1)NC(=O)[C@H](CC(N)=O)NC(=O)[C@H](CC(N)=O)NC(=O)[C@H](CO)NC(=O)[C@H](CO)NC(=O)[C@H](Cc1c[nH]cn1)NC(=O)C(C)(C)NC(=O)[C@H](CC(C)C)NC(=O)[C@H](Cc1ccccc1)NC(=O)[C@H](CC(N)=O)NC(=O)[C@H](C)NC(=O)[C@H](CC(C)C)NC(=O)[C@H](CCCNC(=N)N)NC(=O)[C@H](CCC(N)=O)NC(=O)[C@@H](NC(=O)[C@H](C)NC(=O)[C@@H]1CSSC[C@H](NC(=O)[C@H](CCCCN)NC(=O)[C@@H](N)CCCCNC(=O)CC[C@H](NC(=O)CCCCCCCCCCCCCCCCC(=O)O)C(=O)O)C(=O)N[C@@H](CC(N)=O)C(=O)N[C@@H]([C@@H](C)O)C(=O)N[C@@H](C)C(=O)N[C@@H]([C@@H](C)O)C(=O)N1)[C@@H](C)O)C(=O)N[C@@H](CC(C)C)C(=O)N1CCC[C@H]1C(=O)N1CCC[C@H]1C(=O)N[C@H](C(=O)N[C@@H](CC(N)=O)C(=O)N[C@H](C(=O)NCC(=O)N[C@@H](Cc1c[nH]cn1)C(=O)N[C@@H](CC(N)=O)C(=O)N[C@H](C(=O)N[C@@H](Cc1ccc(O)cc1)C(N)=O)[C@@H](C)O)C(C)C)[C@@H](C)O` [Peptide 145] (H-K([γGlu-C18 diacid])KCNTATCATQRLANFL[Aib]HSSNNFGPILPPTNVGHNTY-NH2; disulfide 3-8; N-terminus assumed), for which the EC50 in assay [1] is 1880 pM. In assay [2], the “Ratio (selectivity hAMYR vs hCTR, ratio of EC50 values at the two receptors)” value worked out at 4.5 and the EC50 came to 417 pM.
With `CC[C@H](C)[C@H](NC(=O)[C@@H]1CCCN1C(=O)CNC(=O)[C@H](Cc1ccccc1)NC(=O)[C@H](CC(N)=O)NC(=O)C(C)(C)NC(=O)[C@H](CO)NC(=O)[C@H](CO)NC(=O)[C@H](Cc1c[nH]cn1)NC(=O)[C@H](CCCNC(=N)N)NC(=O)[C@H](CC(C)C)NC(=O)[C@H](Cc1ccccc1)NC(=O)[C@H](CC(N)=O)NC(=O)[C@H](C)NC(=O)[C@H](CC(C)C)NC(=O)[C@H](CCCNC(=N)N)NC(=O)[C@H](CCC(N)=O)NC(=O)[C@@H](NC(=O)[C@H](C)NC(=O)[C@@H]1CSSC[C@H](NC(=O)[C@@H](N)CCCCNC(=O)CC[C@H](NC(=O)CC[C@H](NC(=O)CCCCCCCCCCCCCCCCC(=O)O)C(=O)O)C(=O)O)C(=O)N[C@@H](CC(N)=O)C(=O)N[C@@H]([C@@H](C)O)C(=O)N[C@@H](C)C(=O)N[C@@H]([C@@H](C)O)C(=O)N1)[C@@H](C)O)C(=O)N[C@@H](CC(C)C)C(=O)N1CCC[C@H]1C(=O)N1CCC[C@H]1C(=O)N[C@H](C(=O)N[C@@H](CC(N)=O)C(=O)N[C@H](C(=O)NCC(=O)N[C@@H](CO)C(=O)N[C@@H](CC(N)=O)C(=O)N[C@H](C(=O)N[C@@H](Cc1ccc(O)cc1)C(N)=O)[C@@H](C)O)C(C)C)[C@@H](C)O` [Peptide 75, K(γE-γE-C18diacid)[CNTATC]ATQRLANFLRHSS(Aib)NFGPILPPTNVGSNTY-amide] (H-K([γGlu-γGlu-C18 diacid])CNTATCATQRLANFLRHSS[Aib]NFGPILPPTNVGSNTY-NH2; disulfide 2-7), the concentration for a half-maximal effect (EC50) in assay [1] worked out at 16000 pM. For the same compound, in assay [2], the “Ratio (selectivity hAMYR vs hCTR, ratio of EC50 values at the two receptors)” value is 99 and the EC50 was 161 pM.
